Laboratory results: the METLIN SMRT retention time set (Domingo-Almenara et al. 2019)

Assay: gradient 5% acetonitrile 3 min, to 50% in 2 min, to 85% in 15 min, held 3 min, 100 µL/min
Settings: column: Zorbax Extend-C18 2.1 x 50 mm; eluents: water / acetonitrile, 0.1% formic acid
How it was run: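 In both positive and negative ionization mode, a quadrupole time-of-flight mass spectrometer coupled to HPLC analyzed pure standards run in mixtures of ~100 molecules. The Zorbax Extend-C18 column (2.1 × 50 mm, 1.8 μm) was operated at 100 μL/min with water and acetonitrile, each containing 0.1% formic acid. The dead volume was 40 μL and the dwell volume 900 μL. Retention time came from adduct peaks that were computationally picked and individually inspected by hand.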

Row | SMILES | RP-LC retention time
1 | O=C1CCCN1c1ccc(Cn2cc(-c3nc(-c4cccc(F)c4)no3)ccc2=O)cc1 | 608 s
2 | CC(C)(CO)NCc1ccc(-c2ccccc2F)o1 | 602 s
3 | COc1ccc(N2CC(c3nc(-c4cccc(Cl)c4)no3)CC2=O)cc1OC (configuration not stated) | 951 s
4 | Cc1noc(-c2cc(=O)n(CC(=O)NCc3ccccc3)c3ccccc23)n1 | 812 s
5 | CCCC(=O)N1CCCC(COc2ccc(C(=O)NC(C)C)cc2)C1 (configuration not stated) | 784 s
6 | O=C1CCc2cc(OCCCCc3nnnn3C3CCCCC3)ccc2N1 | 880 s
7 | O=C(NCCN1CCOCC1)C1CC(=O)N(CCc2c[nH]c3ccc(Cl)cc23)C1 (configuration not stated) | 604 s
8 | Cc1noc(CNC(=O)C2CCN(C(=O)C(C)(C)Oc3ccc(Cl)cc3)CC2)n1 | 772 s
9 | COC(=O)c1ccc(N2C=C(C#N)S(=O)(=O)c3cc(F)ccc32)cc1 | 847 s
10 | CC(C)c1nnc2n1C(C(=O)NCC(F)F)CCCC2 (configuration not stated) | 580 s
11 | Fc1ccc(-c2noc(Cc3nnc(-c4cc(F)cc(F)c4)o3)n2)cc1 | 1030 s
12 | O=C(Cc1csc(NC(=O)c2ncccn2)n1)Nc1nc2ccccc2s1 | 670 s
13 | Cc1ccc(SCC(=O)Nc2nnc(Cc3ccc4c(c3)OCO4)o2)cc1 | 780 s
14 | COc1ccc(-c2nc3ncccn3c2Nc2ccccc2C)cc1 | 705 s
15 | O=C(NCc1ccccc1)C1CCCN(S(=O)(=O)c2cc(-c3noc(C4CCC4)n3)cs2)C1 (configuration not stated) | 1080 s
16 | CN(CCO)c1cc(N2CCN(c3ccccn3)CC2)c2noc3c2c1C(=O)c1ccccc1-3 | 614 s
17 | O=C(NCc1cccs1)C1CCN(c2cc(-n3ccnc3)ncn2)CC1 | 564 s
18 | COCC1(F)CCN(Cc2c(-c3ccc(C)cc3)nc3c(C)cccn23)CC1 | 608 s
19 | CCOC(=O)c1cnc2nc(C)ccc2c1Nc1ccc(F)cc1 | 672 s
20 | O=C(NCc1ccccn1)C1CCCN(c2ccc3cc(S(=O)(=O)N4CCCC4)ccc3n2)C1 (configuration not stated) | 585 s
21 | Cc1onc(-c2ccccc2)c1-c1ccc(S(N)(=O)=O)cc1 | 869 s
22 | COc1ccc(NC(=O)c2cnc3c(c2)c(=O)n(C)c(=O)n3-c2ccccc2)c(OC)c1 | 844 s
23 | COc1ccc(NC(=O)Cc2csc3nc(-c4ccccc4)cn23)cc1 | 751 s

Row | SMILES | RP-LC retention time
24 | COc1ccc(C2(C(=O)N3CC(c4noc(COc5ccc(F)cc5)n4)C3)CC2)cc1 | 974 s
25 | CCCn1cc(S(=O)(=O)Nc2cc(F)cc(F)c2)c2cccnc21 | 890 s
26 | COc1ccc(OC)c(NC(=O)COc2cc(C(C)(C)C)nn2-c2nc(C)cc(C)n2)c1 | 881 s
27 | COCCCNC(=O)NC1CCN(c2nc3cccnc3n(Cc3ccccc3)c2=O)CC1 | 843 s
28 | CCc1ccc(NS(=O)(=O)c2ccc(-c3c(C)noc3C)cc2)cc1 | 996 s
29 | O=C(c1cc(-c2ccccn2)n[nH]1)N1CCCC(C(=O)N2CCc3ccccc3C2)C1 (configuration not stated) | 688 s
30 | Cc1ccc(CN2CCC(CNC(=O)C3CCCN(c4cc(=O)n(C)c(=O)n4C)C3)CC2)cc1 (configuration not stated) | 602 s
31 | O=c1n(Cc2ccccc2F)nc2ccc(S(=O)(=O)N3CCc4ccccc4C3)cn12 | 984 s
32 | CCC(CC)C(=O)Nc1nc(-c2ccc3c(c2)N(CC)C(=O)CO3)cs1 | 980 s
33 | CCc1cccc(C)c1NC(=O)CCC(=O)N1CCOc2ccccc21 | 854 s
34 | CC1CCc2nc3ncn(CC(=O)NCCC4=CCCCC4)c(=O)c3cc2C1 (configuration not stated) | 847 s
35 | COCCc1noc(-c2ccc(=O)n(CC(=O)NC3CCCCC3)c2)n1 | 684 s
36 | O=C(c1cccs1)N1CCC2(CC1)N=C(c1ccc(Cl)cc1)NO2 | 844 s
37 | Cc1ccc(-c2nnc(C)c(NCc3ccccn3)n2)cc1 | 605 s
38 | C#CC(c1ccccc1)(c1ccccc1)n1ccnc1 | 739 s
39 | C=CCN=C(NC#N)SC | 696 s
40 | Cc1c(N2CCCC2)cc2c(c1NC(=O)c1ccccc1Cl)C(C)(C)CC2(C)C | 874 s
41 | CCNC(=O)N1CCc2nc(-c3ccc(F)cc3)ncc2C1 | 752 s
42 | COC(=O)c1ccc2c(=O)n(-c3ccc(OC)c(OC)c3)c(N3CCC(C)CC3)nc2c1 | 1070 s
43 | CCN(CC)CCn1c(NCc2ccccc2OC)nc2ccccc21 | 1130 s
44 | CC(C)c1ccc(Nc2c(-c3ccccc3O)nc3ncccn23)cc1 | 800 s
45 | Cc1cc(C)cc(C(=O)NCc2[nH]nc3ccccc23)c1 | 814 s
46 | O=C(c1ccc2c(c1)OCO2)N1CCC(c2ccncc2)CC1 | 584 s

Row | SMILES | RP-LC retention time
47 | Cc1cc(=O)c2cc(C(=O)c3ccccc3)ccc2[nH]1 | 718 s
48 | Cc1nc(-c2ccccc2)nn1C1CCN(S(=O)(=O)c2cccs2)C1 (configuration not stated) | 816 s
49 | COc1ccccc1N1CCN(c2cc(SCC(=O)NCC3CCCO3)ncn2)CC1 (configuration not stated) | 732 s
50 | Cc1nccn1Cc1nc(-c2ccccc2Cl)no1 | 624 s
51 | COc1cccc(NC(=O)Cn2nc3c(N4CCCCCC4)nccn3c2=O)c1 | 700 s
52 | Cc1nc(CCNC(=O)C2CCN(S(=O)(=O)c3ccc(F)c(F)c3)CC2)cs1 | 724 s
53 | CCN1CCC2(CC1)OC(=O)C(C)=C2C(=O)NCCc1ccc(Cl)cc1 | 653 s
54 | CCOc1ccc(N2CC(c3nc(-c4ccc(C)cc4)no3)CC2=O)cc1 (configuration not stated) | 1090 s
55 | CCN(Cc1ccccc1)C(=O)c1cn2c(n1)COCC2 | 640 s
56 | CCCn1ccc2oc(C)c(C(=O)NCc3cc(F)ccc3F)c2c1=O | 1040 s
57 | COc1ccc(Cl)cc1NC(=O)COc1cc(C)nc(N2CCCC2)n1 | 613 s
58 | Cc1cccc(CNC(=O)CN2CCN(Cc3ccc(F)cc3)C2=O)c1 | 831 s
59 | CC(C)N1CCN(C(=O)c2n[nH]c3c2CCCC3)CC1 | 558 s
60 | Cc1cccc(C)c1NC1=NCCCS1 | 635 s
61 | CC(=O)N1CCN(c2nc3c(s2)CC(C(=O)N2CCCCC2)CC3)CC1 (configuration not stated) | 548 s
62 | Cc1cc(C)cc(-n2ccnc2SCC(=O)Nc2cc(C)on2)c1 | 755 s
63 | CCOc1ccc(OCC)c(NC(=O)C(C)Oc2ccc(=O)n(-c3ccc(F)cc3)n2)c1 (configuration not stated) | 953 s
64 | Cc1ccc(-c2cc(C(=O)NCCCN3CCc4ccccc4C3)c(C)[nH]2)cc1C | 751 s
65 | Cc1ccc(S(=O)(=O)N2CCCN(c3ccc(=O)n(-c4ccccc4)n3)CC2)cc1 | 835 s
66 | CCCC(=O)Nc1ccc2c(c1)CN(C(=O)c1c(F)cccc1Cl)C(C(=O)N(C)C)C2 (configuration not stated) | 727 s
67 | CC(=O)c1ccc(S(=O)(=O)N2CCC(CN3CCCC(C)C3)CC2)cc1 (configuration not stated) | 634 s
68 | CC(=O)N1CCc2cc(S(=O)(=O)C(C)CC(=O)N3CCN(Cc4ccccc4)CC3)ccc21 (configuration not stated) | 960 s
69 | C=CCn1c(=O)c2ccccc2n(Cc2nc(-c3cccc(C(F)(F)F)c3)no2)c1=O | 1110 s

Row | SMILES | RP-LC retention time
70 | Cc1cc(C(=O)NCC2CCCO2)c2cccc(C)c2n1 (configuration not stated) | 616 s
71 | CNC(=O)C1CCCN(C(=O)Nc2ccc(NC(=O)Nc3ccc(OC)cc3)cc2)C1 (configuration not stated) | 633 s
72 | CCn1cc(C(=O)Nc2cc(C)cc(C)c2)c(S(=O)(=O)N2CCSCC2)n1 | 944 s
73 | NC(=O)CSc1nnnn1-c1ccccc1 | 590 s
74 | CC(C)CC(=O)Nc1ccc(N2CCN(CC(=O)N3CCCC3)CC2)cc1C(=O)O | 614 s
75 | O=C(c1ccc(Cl)cc1)N1CCc2nc[nH]c2C1 | 568 s
76 | CN(CCc1noc(-c2ccc(Cl)cc2)n1)C(=O)Nc1ccccc1F | 952 s
77 | Cc1ccc(F)c(NC(=O)c2cnc(-c3ccc(F)cc3)nc2-c2ccncc2)c1 | 954 s
78 | COC(=O)c1sccc1NC(=O)NCC(c1ccc(OC)c(OC)c1)c1c[nH]c2ccccc12 (configuration not stated) | 978 s
79 | O=P1(N(CCCl)CCCl)NCCCO1 (configuration not stated) | 724 s
80 | Cc1ccc(-n2cc3c(N4CCCC(C(=O)NCc5ccc(C(C)C)cc5)C4)ncnc3n2)cc1 (configuration not stated) | 836 s
81 | CCCN1C(=O)C(C)(C(=O)NCc2ccccc2Cl)Oc2cccnc21 (configuration not stated) | 942 s
82 | COCc1cc(=O)n(CC(=O)Nc2cc(OC)c(OC)c(OC)c2)c(N2CCOCC2)n1 | 734 s
83 | c1cc(CN2CCCCC2)ccc1CC1CCNCC1 | 528 s
84 | CCS(=O)(=O)N1CCc2nn(Cc3ccccc3)c(=O)n2CC1 | 687 s
85 | O=C(c1ccncc1)N1CCc2c([nH]c3ccccc23)C1c1ccc(Cl)cc1 (configuration not stated) | 1000 s
86 | Cc1cc(Cl)ccc1NC(=O)N1C[C@@H]2C[C@H](NS(=O)(=O)c3ccccc3)[C@H]1C2 | 922 s
87 | O=C(Cn1ccn2nc(-c3ccccc3)c(CO)c2c1=O)Nc1ccccc1 | 781 s
88 | Cc1ccnc(N2CCCC(C(=O)NCCSCc3ccco3)C2)n1 (configuration not stated) | 709 s
89 | CC(=O)N1CCC(CC(=O)N2CCc3nn(CC4CC4)c(=O)n3CC2)CC1 | 596 s
90 | CCOc1ccc(N2CC(c3nc(-c4cccnc4)no3)CC2=O)cc1 (configuration not stated) | 759 s
91 | Cc1sc2cc(C(=O)N(C)C)[nH]c2c1CN1CCCCC1 | 606 s
92 | O=C(O)CCCNS(=O)(=O)c1ccc2ccccc2c1 | 717 s
